Assay results reported in publication PMC1262763, “Evolutionary selection across the nuclear hormone receptor superfamily with a focus on the NR1I subfamily (vitamin D, pregnane X, and constitutive androstane receptors)” (Nuclear Receptor, 2005).
Counter-ions that a name gives are not always drawn.

Key:
human PXR = target: T1, human PXR (Homo sapiens, UniProt O75469); assay: luciferase reporter transactivation, HepG2-NTCP cells; type: cell-based; details: concentration-response curve, normalized to […] rifampicin
T1 construct: gene NR1I2; full-length receptor (DBD and LBD), transfected in HepG2-NTCP cells with CYP3A4-PXRE-Luc reporter
T1 sequence (O75469 1-434): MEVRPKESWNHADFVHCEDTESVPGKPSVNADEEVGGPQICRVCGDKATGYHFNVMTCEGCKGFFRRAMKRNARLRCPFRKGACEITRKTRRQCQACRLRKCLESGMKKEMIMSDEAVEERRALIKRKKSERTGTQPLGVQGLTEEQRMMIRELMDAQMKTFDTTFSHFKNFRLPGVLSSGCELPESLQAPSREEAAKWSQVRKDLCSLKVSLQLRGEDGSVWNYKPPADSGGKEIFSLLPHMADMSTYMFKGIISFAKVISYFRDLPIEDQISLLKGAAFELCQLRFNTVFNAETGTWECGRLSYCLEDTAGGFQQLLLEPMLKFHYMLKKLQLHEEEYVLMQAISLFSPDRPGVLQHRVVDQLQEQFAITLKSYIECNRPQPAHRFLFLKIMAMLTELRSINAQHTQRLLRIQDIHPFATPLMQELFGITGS

human VDR = human VDR (Homo sapiens, UniProt P11473); details: maximal activator […] calcitriol
Chain of human VDR (P11473 whole entry, the tested form may be a part): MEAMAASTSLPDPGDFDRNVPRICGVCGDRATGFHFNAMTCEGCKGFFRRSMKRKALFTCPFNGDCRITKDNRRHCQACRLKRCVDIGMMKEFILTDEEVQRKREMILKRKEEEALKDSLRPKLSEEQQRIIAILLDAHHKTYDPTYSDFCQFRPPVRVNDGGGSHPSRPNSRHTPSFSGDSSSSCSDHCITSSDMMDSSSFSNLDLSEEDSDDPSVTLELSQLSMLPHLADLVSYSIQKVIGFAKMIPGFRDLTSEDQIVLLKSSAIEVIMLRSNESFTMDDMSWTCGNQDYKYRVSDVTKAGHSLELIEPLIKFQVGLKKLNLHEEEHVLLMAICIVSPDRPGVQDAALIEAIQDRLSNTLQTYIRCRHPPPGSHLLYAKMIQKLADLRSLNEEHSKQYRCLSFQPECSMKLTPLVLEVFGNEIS

Xenopus laevis BXRα = target: T2, Xenopus laevis BXRα (Xenopus laevis, UniProt Q91839); assay: GAL4-LBD luciferase reporter transactivation, HepG2-NTCP cells; type: cell-based; details: concentration-response curve; normalized to […] n-butyl-p-aminobenzoate
T2 construct: gene nr1i2.L; LBD only, fused to GAL4 (tk-UAS-Luc reporter), transfected in HepG2-NTCP cells
T2 sequence (Q91839 141-386 limits assumed): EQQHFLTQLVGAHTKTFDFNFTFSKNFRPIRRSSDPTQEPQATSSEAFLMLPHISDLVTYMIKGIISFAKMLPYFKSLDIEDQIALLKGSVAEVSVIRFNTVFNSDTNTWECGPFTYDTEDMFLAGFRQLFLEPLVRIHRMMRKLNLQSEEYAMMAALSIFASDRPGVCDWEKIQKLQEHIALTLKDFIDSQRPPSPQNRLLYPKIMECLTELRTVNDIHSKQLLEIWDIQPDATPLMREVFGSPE

zebrafish PXR = target: T3, zebrafish PXR (Danio rerio, UniProt A5WYG8); assay: as above; type: cell-based; details: concentration-response curve; normalized to […]α-androstan-3α-ol
T3 construct: gene nr1i2; LBD only, fused to GAL4 (tk-UAS-Luc reporter), transfected in HepG2-NTCP cells
T3 sequence (A5WYG8 144-430 limits assumed): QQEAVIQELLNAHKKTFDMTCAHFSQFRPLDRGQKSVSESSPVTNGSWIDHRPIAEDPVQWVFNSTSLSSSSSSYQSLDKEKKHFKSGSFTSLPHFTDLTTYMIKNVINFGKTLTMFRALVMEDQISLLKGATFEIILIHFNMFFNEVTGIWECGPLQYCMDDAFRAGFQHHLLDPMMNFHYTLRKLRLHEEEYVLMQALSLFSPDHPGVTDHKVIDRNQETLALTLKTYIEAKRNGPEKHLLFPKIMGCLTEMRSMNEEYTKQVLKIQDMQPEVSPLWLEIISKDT

Row | SMILES | luciferase reporter transactivation, HepG2-NTCP cells (human PXR) | efficacy relative to calcitriol (human VDR) [%] | GAL4-LBD luciferase reporter transactivation, HepG2-NTCP cells (Xenopus laevis BXRα) | GAL4-LBD luciferase reporter transactivation, HepG2-NTCP cells (zebrafish PXR) | luciferase reporter transactivation, HepG2-NTCP cells (human PXR; OATP co-transfected)
1 | C[C@H](CCC(=O)O)[C@H]1CC[C@H]2[C@@H]3CC[C@@H]4CC(=O)CC[C@]4(C)[C@H]3CC[C@]12C [3-ketolithocholic acid] | the early bile salts petromyzonol sulfate and scymnol sulfate, 3-ketolithocholic acid, and the benzoate analog | 15 |  |  | 
2 | CCCOC(=O)c1ccc(O)cc1 [n-propyl-p-hydroxybenzoate] | the early bile salts petromyzonol sulfate and scymnol sulfate, 3-ketolithocholic acid, and the benzoate analog |  | n-propyl-p-hydroxybenzoate, which activates BXRα and BXRβ robustly | zebrafish PXR is activated by pregnenolone, scymnol sulfate, and the benzoate analog | 
3 | CC(=O)[C@H]1CC[C@H]2[C@@H]3CC=C4C[C@@H](O)CC[C@]4(C)[C@H]3CC[C@]12C [pregnenolone] | Human PXR is activated by micromolar concentrations of the steroid pregenonolone |  |  | zebrafish PXR is activated by pregnenolone, scymnol sulfate, and the benzoate analog | 
4 | C[C@H](CCCOS(=O)(=O)O)[C@H]1CC[C@H]2[C@@H]3[C@H](O)C[C@H]4C[C@H](O)CC[C@]4(C)[C@H]3C[C@H](O)[C@]12C [petromyzonol sulfate] |  |  |  |  | the early bile salts petromyzonol sulfate and scymnol sulfate, 3-ketolithocholic acid, and the benzoate analog
